“And” between values parts separate entries of the source, which are not always exact repeats. Identical values can stand only once. Records with an inconclusive call do not appear.
Tested on: CD8F1 mice, subcutaneous mammary adenocarcinoma, T/C%
Experiment: NCI In Vivo Anticancer Drug Screen. Data for tumor model Mammary Adenocarcinoma CD8F1 (subcutaneous) in CD8F1
Conditions: higher = larger tumour
Outline: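 Compound-treated versus vehicle-treated mice with transplantable tumors; survival or tumor size compared as T/C.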

O=c1[nH]c(=O)n(C2CC(O)C(CO)O2)cc1C(F)(F)F (stereo not given) was tested, and the T/C (endpoint: mean tumor weight, dose: 125.0 mg/kg/injection, schedule: Q07DX005 (ip), vehicle: saline) was 65 % of control, the T/C (endpoint: mean tumor weight, dose: 250.0 mg/kg/injection, schedule: Q07DX005 (ip), vehicle: saline) was 84 % of control and the T/C (endpoint: mean tumor weight, dose: 250.0 mg/kg/injection, schedule: Q07DX008 (ip), vehicle: saline) was 184 % of control. For the same compound, the T/C (endpoint: mean tumor weight, dose: 500.0 mg/kg/injection, schedule: Q07DX005 (ip), vehicle: saline) was 59 % of control, the T/C (endpoint: mean tumor weight, dose: 500.0 mg/kg/injection, schedule: Q07DX008 (ip), vehicle: saline) was 55 % of control and the T/C (endpoint: mean tumor weight, dose: 750.0 mg/kg/injection, schedule: Q07DX008 (ip), vehicle: saline) was 68 % of control. The T/C (endpoint: median tumor weight (est.), dose: 12.5 mg/kg/injection, schedule: Q07DX005 (ip), vehicle: suspension in saline) was 28 % of control, the T/C (endpoint: median tumor weight (est.), dose: 250.0 mg/kg/injection, schedule: Q07DX005 (ip), vehicle: suspension in saline) was 100 % of control and the T/C (endpoint: median tumor weight (est.), dose: 500.0 mg/kg/injection, schedule: Q07DX005 (ip), vehicle: suspension in saline) was 26 % of control.

For O=C1CC2(C(=O)N1CN1CCCCC1)c1ccccc1-c1ccccc12, the T/C (endpoint: median tumor weight (est.), dose: 12.5 mg/kg/injection, schedule: Q07DX005 (ip), vehicle: Klucel (hydroxypropylcellulose) (HPC)) was 99 % of control, the T/C (endpoint: median tumor weight (est.), dose: 25.0 mg/kg/injection, schedule: Q07DX005 (ip), vehicle: Klucel (hydroxypropylcellulose) (HPC)) was 71 % of control and the T/C (endpoint: median tumor weight (est.), dose: 100.0 mg/kg/injection, schedule: Q07DX005 (ip), vehicle: Klucel (hydroxypropylcellulose) (HPC)) was 85 % of control. For the same compound, the T/C (endpoint: median tumor weight (est.), dose: 200.0 mg/kg/injection, schedule: Q07DX005 (ip), vehicle: Klucel (hydroxypropylcellulose) (HPC)) was 62 % of control and the T/C (endpoint: median tumor weight (est.), dose: 400.0 mg/kg/injection, schedule: Q07DX005 (ip), vehicle: Klucel (hydroxypropylcellulose) (HPC)) was 21 % of control.

For CC1CN1C(=O)NCCCCCCNC(=O)N1CC1C (stereo not given), the T/C (endpoint: median tumor weight (est.), dose: 5.0 mg/kg/injection, schedule: Q07DX005 (ip), vehicle: Klucel (hydroxypropylcellulose) (HPC)) was 75 % of control and 86 % of control, the T/C (endpoint: median tumor weight (est.), dose: 10.0 mg/kg/injection, schedule: Q07DX005 (ip), vehicle: Klucel (hydroxypropylcellulose) (HPC)) was 40 % of control and 55 % of control and the T/C (endpoint: median tumor weight (est.), dose: 20.0 mg/kg/injection, schedule: Q07DX005 (ip), vehicle: Klucel (hydroxypropylcellulose) (HPC)) was 6 % of control and 19 % of control.

With Nc1nc2c(ncn2C2OC(CO)C(O)C2O)c(=O)[nH]1.Nc1nc2c(ncn2C2OC(CO)C(O)C2O)c(=O)[nH]1.[NH2-].[NH2-].[Pt+2] (stereo not given) the T/C (endpoint: median tumor weight (est.), dose: 12.5 mg/kg/injection, schedule: Q07DX005 (ip), vehicle: water) was 52 % of control, the T/C (endpoint: median tumor weight (est.), dose: 25.0 mg/kg/injection, schedule: Q07DX005 (ip), vehicle: water) was 61 % of control and the T/C (endpoint: median tumor weight (est.), dose: 50.0 mg/kg/injection, schedule: Q07DX005 (ip), vehicle: water) was 34 % of control. For the same compound, the T/C (endpoint: median tumor weight (est.), dose: 100.0 mg/kg/injection, schedule: Q07DX005 (ip), vehicle: water) was 51 % of control and the T/C (endpoint: median tumor weight (est.), dose: 200.0 mg/kg/injection, schedule: Q07DX005 (ip), vehicle: water) was 40 % of control.

With CNC(=O)/C=C/C1=CN2C(=O)c3ccc(C)c(O)c3NC(OC)C2C1 (stereo not given) the T/C (endpoint: median tumor weight change, dose: 0.03 mg/kg/injection, schedule: Q01DX001 (ip), vehicle: suspension in saline) was 70 % of control, the T/C (endpoint: median tumor weight change, dose: 0.07 mg/kg/injection, schedule: Q01DX001 (ip), vehicle: suspension in saline) was 51 % of control and the T/C (endpoint: median tumor weight change, dose: 0.31 mg/kg/injection, schedule: Q01DX001 (ip), vehicle: saline) was 150 % of control. The T/C (endpoint: median tumor weight change, dose: 0.62 mg/kg/injection, schedule: Q01DX001 (ip), vehicle: saline) was 83 % of control.

With CS(C)=O the T/C (endpoint: median tumor weight (est.), dose: 1.5 grams/kg/injection, schedule: Q07DX005 (ip), vehicle: saline) was 106 % of control and 122 % of control.

For CC1=C(/C=C/C(C)=C/C=C/C(C)=C/C=O)C(C)(C)CCC1, the T/C (endpoint: median tumor weight change, dose: 62.5 mg/kg/injection, schedule: Q01DX001 (ip), vehicle: saline with Tween-80) was 104 % of control and the T/C (endpoint: median tumor weight change, dose: 125.0 mg/kg/injection, schedule: Q01DX001 (ip), vehicle: saline with Tween-80) was 74 % of control.

For COc1cc2cc[n+](C)c(Cc3ccccc3)c2cc1OC, the T/C (endpoint: median tumor weight (est.), dose: 6.25 mg/kg/injection, schedule: Q07DX005 (ip), vehicle: saline with Tween-80) was 123 % of control, the T/C (endpoint: median tumor weight (est.), dose: 12.5 mg/kg/injection, schedule: Q07DX005 (ip), vehicle: saline with Tween-80) was 83 % of control and the T/C (endpoint: median tumor weight (est.), dose: 25.0 mg/kg/injection, schedule: Q07DX005 (ip), vehicle: saline with Tween-80) was 94 % of control. For the same compound, the T/C (endpoint: median tumor weight (est.), dose: 50.0 mg/kg/injection, schedule: Q07DX005 (ip), vehicle: saline with Tween-80) was 75 % of control.

In the case of Nc1nc2ccc(NCc3ccc(C(=O)NC(CCC(=O)O)C(=O)O)cc3)cc2c(=O)[nH]1 (stereo not given), the T/C (endpoint: median tumor weight change, dose: 25.0 mg/kg/injection, schedule: Q01DX001 (ip), vehicle: saline with Tween-80) is reported as 115 % of control and the T/C (endpoint: median tumor weight change, dose: 100.0 mg/kg/injection, schedule: Q01DX001 (ip), vehicle: saline with Tween-80) is reported as 68 % of control.

With O=C1c2cccc(NCCCNCCO)c2C(=O)c2cccc(NCCCNCCO)c21 the T/C (endpoint: median tumor weight change, dose: 6.25 mg/kg/injection, schedule: Q01DX001 (ip), vehicle: acid diluted with saline) was 36 % of control, the T/C (endpoint: median tumor weight change, dose: 12.5 mg/kg/injection, schedule: Q01DX001 (ip), vehicle: acid diluted with saline) was 47 % of control and the T/C (endpoint: median tumor weight change, dose: 25.0 mg/kg/injection, schedule: Q01DX001 (ip), vehicle: acid diluted with saline) was 29 % of control. The T/C (endpoint: median tumor weight change, dose: 50.0 mg/kg/injection, schedule: Q01DX001 (ip), vehicle: acid diluted with saline) was 23 % of control and the T/C (endpoint: median tumor weight change, dose: 100.0 mg/kg/injection, schedule: Q01DX001 (ip), vehicle: acid diluted with saline) was 54 % of control.

Source: PubChem BioAssay AID220 (DTP/NCI, 2004)
